Measurements published in patent US9018388B2, “Pesticidal compositions and processes related thereto” (Dow AgroSciences LLC, priority 2012, dated 2015).

What was measured:
[1] = tested on: Beet Armyworm (BAW) (Spodoptera exigua); assay: Bioassay on beet armyworm (BAW), 128-well diet tray assay; assay type: in vivo; conditions: Spodoptera exigua; Beet armyworm, 50 μg/cm^2; read-out: % Mortality BAW 50 μg/cm^2
Experimental: (§1) Bioassays on Beet Armyworm (“BAW”) and Corn Earworm (“CEW”)
(§2) Certain molecules disclosed in this document were tested against BAW and CEW using procedures described in the following examples. In the reporting of the results, the “BAW & CEW Rating Table” was used (See Table Section).
Bioassays on BAW (Spodoptera exigua)
Bioassays on BAW were conducted using a 128-well diet tray assay. One to five second instar BAW larvae were placed in each well (3 mL) of the diet tray that had been previously filled with 1 mL of artificial diet to which 50 μg/cm^2 of the test compound (dissolved in 50 μL of 90:10 acetone-water mixture) had been applied (to each of eight wells) and then allowed to dry. Trays were covered with a clear self-adhesive cover and held at 25° C., 14:10 light-dark for five to seven days. Percent mortality was recorded for the larvae in each well; activity in the eight wells was then averaged. The results are indicated in the table entitled “Table 5: Biological Results” (See Table Section).

[2] = tested on: Corn Earworm (CEW) (Helicoverpa zea); assay: Bioassay on corn earworm (CEW), 128-well diet tray assay; assay type: in vivo; conditions: Helicoverpa zea; Corn earworm, 50 μg/cm^2; read-out: % Mortality CEW 50 μg/cm^2
Experimental: as §1, §2
Bioassays on CEW (Helicoverpa zea)
Bioassays on CEW were conducted using a 128-well diet tray assay. One to five second instar CEW larvae were placed in each well (3 mL) of the diet tray that had been previously filled with 1 mL of artificial diet to which 50 μg/cm^2 of the test compound (dissolved in 50 μL of 90:10 acetone-water mixture) had been applied (to each of eight wells) and then allowed to dry. Trays were covered with a clear self-adhesive cover and held at 25° C., 14:10 light-dark for five to seven days. Percent mortality was recorded for the larvae in each well; activity in the eight wells was then averaged. The results are indicated in the table entitled “Table 5: Biological Results” (See Table Section).

| Compound | pest or weed control at 50 µg/cm2, 50 µg/cm2 [1] | pest or weed control at 50 µg/cm2, 50 µg/cm2 [2] |
| --- | --- | --- |
| CC(C)c1ccc(F)cc1N1CS/C1=N\N=C\c1ccc(-c2ncn(-c3ccc(C(C)(F)F)cc3)n2)cc1 [Compound 259C] | 50 to 100% | 50 to 100% |
| COc1cc(C)c(/N=C(/N/N=C/c2ccc(-c3ncn(-c4ccc(OC(F)(F)F)cc4)n3)cc2)SCOC(=O)C(C)OCC(F)(F)F)c(C)c1 (stereo not drawn) [Compound 38C] | 50 to 100% | 50 to 100% |
| COc1cc(C)c(/N=C(/N/N=C/c2ccc(-c3ncn(-c4ccc(OC(F)(F)F)cc4)n3)cc2)SCOC(=O)C2CCCO2)c(C)c1 (stereo not drawn) [Compound 44C] | 50 to 100% | 50 to 100% |
| Cc1cccc(C)c1/N=C(/N/N=C/c1ccc(-c2ncn(-c3ccc(OC(F)(F)F)cc3)n2)cc1)SCC(=O)NCC(N)C(=O)O (stereo not drawn) [Compound 63C] | 50 to 100% | 50 to 100% |
| COc1cc(C)c(/N=C(\N/N=C/c2ccc(-c3ncn(-c4ccc(C(F)(F)F)cc4)n3)cc2)SCOC(=O)C(C)C)c(C)c1 [Compound 46C] | 50 to 100% | 50 to 100% |
| CC(C)Cc1ccccc1N1CCS/C1=N\N=C\c1ccc(-c2ncn(-c3ccc(OC(F)(F)F)cc3)n2)cc1 [Compound 150C] | 50 to 100% | 50 to 100% |
| O=C1CCS/C(=N\N=C\c2ccc(-c3ncn(-c4ccc(OC(F)(F)F)cc4)n3)cc2)N1c1ccccc1OC(F)F [Compound 233C] | 50 to 100% | 50 to 100% |
| COc1ccccc1N1CCCS/C1=N\N=C\c1ccc(-c2ncn(-c3ccc(OC(F)(F)F)cc3)n2)cc1 [Compound 191C] | 50 to 100% | 50 to 100% |
| CC(C)c1c(F)cccc1N1CS/C1=N\N=C\c1ccc(-c2ncn(-c3ccc(OC(F)(F)F)cc3)n2)cc1 [Compound 253C] | 50 to 100% | 50 to 100% |
| COc1ccc(N2CCS/C2=N\N=C\c2ccc(-c3ncn(-c4ccc(OC(F)(F)F)cc4)n3)cc2)c(C)c1 [Compound 137C] | 50 to 100% | 50 to 100% |
| COc1cc(C)c(-n2c(C)cs/c2=N\N=C\c2ccc(-c3ncn(-c4ccc(OC(F)(F)F)cc4)n3)cc2)c(C)c1 [Compound 172C] | 50 to 100% | 50 to 100% |
| COc1ccc(N2C(=O)CCS/C2=N\N=C\c2ccc(-c3ncn(-c4ccc(OC(F)(F)F)cc4)n3)cc2)c(C)c1 [Compound 231C] | 50 to 100% | 50 to 100% |
| CC(C)(C)c1ccccc1N1C(=O)CS/C1=N\N=C\c1ccc(-c2ncn(-c3ccc(OC(F)(F)F)cc3)n2)cc1 [Compound 125C] | 50 to 100% | 50 to 100% |
| CC(C)c1ccc(F)cc1N1CS/C1=N\N=C\c1ccc(-c2ncn(-c3ccc(OC(F)(F)F)cc3)n2)cc1 [Compound 251C] | 50 to 100% | 50 to 100% |
| COc1cc(C)c(/N=C(\N/N=C/c2ccc(-c3ncn(-c4ccc(C(F)(F)F)cc4)n3)cc2)SCOC(=O)CNC(=O)OCc2ccccc2)c(C)c1 [Compound 45C] | 50 to 100% | 50 to 100% |
| Cc1cccc(C)c1N1C(=O)CS/C1=N\N=C\c1ccc(-c2ccn(-c3ccc(OC(F)(F)F)cc3)n2)cc1 [Compound 103C] | 50 to 100% | 50 to 100% |
| O=C1CS/C(=N\N=C\c2ccc(-c3ncn(-c4ccc(OC(F)(F)F)cc4)n3)cc2)N1c1ccccc1OC(F)F [Compound 126C] | 50 to 100% | 50 to 100% |
| CC1CS/C(=N\N=C\c2ccc(-c3ncn(-c4ccc(OC(F)(F)F)cc4)n3)cc2)N(c2c(Cl)cccc2C(F)(F)F)C1 (stereo not drawn) [Compound 215C] | 50 to 100% | 50 to 100% |
| CC(C)c1cccc(F)c1N1CS/C1=N\N=C\c1ccc(-c2ncn(-c3ccc(OC(F)(F)F)cc3)n2)cc1 [Compound 250C] | 50 to 100% | 50 to 100% |
| CC(C)c1ccccc1N1CCCS/C1=N\N=C\c1ccc(-c2ncn(-c3ccc(OC(F)(F)F)cc3)n2)cc1 [Compound 177C] | 50 to 100% | 50 to 100% |
| COc1cc(C)c(/N=C(/N/N=C/c2ccc(-c3ncn(-c4ccc(OC(F)(F)F)cc4)n3)cc2)SCC(=O)NCCCN)c(C)c1 [Compound 64C] | 50 to 100% | 50 to 100% |

| Compound | pest or weed control at 50 µg/cm2, 50 µg/cm2 [1] | pest or weed control at 50 µg/cm2, 50 µg/cm2 [2] |
| --- | --- | --- |
| Cc1cc(Cl)cc(C)c1N1C(=O)CS/C1=N\N=C\c1ccc(-c2ncn(-c3ccc(OC(F)(F)F)cc3)n2)cc1 [Compound 105C] | 50 to 100% | 50 to 100% |
| COC(=O)C1CC(c2ccc(/C=N/N=C3\SCC(=O)N3c3c(Cl)cccc3Cl)cc2)=NN1c1ccc(OC(F)(F)F)cc1 (stereo not drawn) [Compound 109C] | 50 to 100% | 50 to 100% |
| Cc1cccc(C)c1/N=C(/N/N=C/c1ccc(-c2ncn(-c3ccc(OC(F)(F)F)cc3)n2)cc1)SCOC(=O)C(C)C [Compound 25C] | 50 to 100% | 50 to 100% |
| CCOc1ccccc1N1C(=O)CS/C1=N\N=C\c1ccc(-c2ncn(-c3ccc(OC(F)(F)F)cc3)n2)cc1 [Compound 116C] | 50 to 100% | 50 to 100% |
| CCC(C)c1ccccc1N1CCCS/C1=N\N=C\c1ccc(-c2ncn(-c3ccc(OC(F)(F)F)cc3)n2)cc1 (stereo not drawn) [Compound 183C] | 50 to 100% | 50 to 100% |
| Cc1cc(C)c(N2/C(=N/N=C/c3ccc(-c4ncn(-c5ccc(OC(F)(F)F)cc5)n4)cc3)SCC2C)c(C)c1 (stereo not drawn) [Compound 161C] | 50 to 100% | 50 to 100% |
| CC(C)(C)c1ccccc1N1CCCS/C1=N\N=C\c1ccc(-c2ncn(-c3ccc(OC(F)(F)F)cc3)n2)cc1 [Compound 210C] | 50 to 100% | 50 to 100% |
| Cc1cccc(Cl)c1N1CCCS/C1=N\N=C\c1ccc(-c2ncn(-c3ccc(OC(F)(F)F)cc3)n2)cc1 [Compound 196C] | 50 to 100% | 50 to 100% |
| CC(C)c1ccccc1N1CCCCS/C1=N\N=C\c1ccc(-c2ncn(-c3ccc(OC(F)(F)F)cc3)n2)cc1 [Compound 212C] | 50 to 100% | 50 to 100% |
| Fc1cccc(Cl)c1N1CCS/C1=N\N=C\c1ccc(-c2ncn(-c3ccc(OC(F)(F)F)cc3)n2)cc1 [Compound 143C] | 50 to 100% | 50 to 100% |
| CC(C)c1ccc(F)cc1N1CS/C1=N\N=C\c1ccc(-c2ncn(-c3ccc(OC(F)(F)C(F)(F)F)cc3)n2)cc1 [Compound 256C] | 50 to 100% | 50 to 100% |
| Cc1cs/c(=N\N=C\c2ccc(-c3ncn(-c4ccc(OC(F)(F)F)cc4)n3)cc2)n1-c1ccccc1C(C)C [Compound 176C] | 50 to 100% | 50 to 100% |
| Cc1cccc(C(C)C)c1N1C(=O)CS/C1=N\N=C\c1ccc(-c2ncn(-c3ccc(OC(F)(F)F)cc3)n2)cc1 [Compound 238C] | 50 to 100% | 50 to 100% |
| Cc1cs/c(=N\N=C\c2ccc(-c3ncn(-c4ccc(OC(F)(F)F)cc4)n3)cc2)n1-c1c(Cl)cccc1C(F)(F)F [Compound 169C] | 50 to 100% | 50 to 100% |
| Cc1cc(C)c(N2/C(=N/N=C/c3ccc(-c4ncn(-c5ccc(OC(F)(F)F)cc5)n4)cc3)SCCC2C)c(C)c1 (stereo not drawn) [Compound 218C] | 50 to 100% | 50 to 100% |
| CC(C)c1ccccc1N1CS/C1=N\N=C\c1ccc(-c2ncn(-c3ccc(OC(F)(F)F)cc3)n2)cc1 [Compound 240C] | 50 to 100% | 50 to 100% |
| FC(F)(F)Oc1ccc(-n2cnc(-c3ccc(/C=N/N=C4\SCCN4c4ccccc4OC(F)(F)F)cc3)n2)cc1 [Compound 153C] | – | 50 to 100% |
| CCOc1cccc(OCC)c1N1C(=O)CS/C1=N\N=C\c1ccc(-c2ncn(-c3ccc(OC(F)(F)F)cc3)n2)cc1 [Compound 98C] | 50 to 100% | – |
| Cc1cccc(C)c1/N=C(/N/N=C/c1ccc(-c2ncn(-c3ccc(OC(F)(F)F)cc3)n2)cc1)SCc1ccc(F)cc1F [Compound 7C] | – | 50 to 100% |
| COc1ccc(N2C(=O)CS/C2=N\N=C\c2ccc(-c3ncn(-c4ccc(OC(F)(F)F)cc4)n3)cc2)cc1 [Compound 115C] | 0 to 50% | – |
